Measurements as given in patent US20020120098A1, “Enhanced stimulation of erythropoiesis” (priority 1996, published 2002).

How the values were obtained:
Assay type in all cases: cell-based, human
[1] = tested on: erythroid progenitors; assay: Colony formation assay, adult peripheral blood LDMNC: erythroid progenitors overall; details: for growth of erythroid progenitors in the absence of Epo, adult blood: 0 U/ml Epo; for erythroid progenitor number, adult blood, 5% O2 and 0.2 U/ml Epo (in words): 5% O2, 0.2 U/ml Epo, over untreated controls under the same conditions
Description: Blood was collected with informed consent from the antecubital vein of healthy adult human volunteers into vacutainers containing 143 USP U/ml sodium heparin. Low density mononuclear cells (LDMNC) were isolated by centrifugation over a density gradient as described in Example 1. Plastic adherent cells were removed by an overnight incubation in a tissue culture flask and the non-adherent cells were placed directly in a CFA. Conditions for the CFA are similar to those described in Examples 1-4.
Mean fold increase in adult blood BFU-E, CFU-E and CFU-GM progenitor number in the presence of reduced Epo (0.2 U/ml) (n=3) at 20% O2 is shown in FIG. 11 with and without (no addition) the additives used in FIG. 9. Results are expressed relative to control cells at 2 U/ml Epo treated only with the respective vehicles (solid line at fold expansion=1.0). […] As with cord blood, CFU-GM numbers were unaffected by reductions in Epo. The addition of HAo or HEMOLINK™ to CFAs containing 0.2 U/ml Epo stimulated ˜4.5- and ˜3.5-fold increases in BFU-E and CFU-E, respectively, compared to untreated controls (no addition), restoring the progenitor number to that obtained at 2 U/ml Epo. Hemin stimulated the greatest increase in BFU-E and CFU-E (˜9- and ˜6-fold, respectively) at 0.2 U/ml Epo versus the untreated controls (no addition). FeCl3 stimulated only a ˜2-fold increase in erythroid progenitor number at 0.2 U/ml Epo.
Mean fold increase in adult blood BFU-E, CFU-E and CFU-GM progenitor number at 5% O2 in the presence of reduced Epo (0.2 U/ml) (n=3) is shown in FIG. 12 with and without the additives used in FIG. 9. Results are expressed relative to control cells at 2 U/ml Epo treated only with the respective vehicles and cultured at ambient oxygen tensions (˜20% O2) for 14 days (solid line at fold expansion=1.0). The number of erythroid progenitors stimulated at 5% O2 and 0.2 U/ml Epo was similar to that obtained with 2.0 U/ml Epo maintained at ambient oxygen tensions (no addition).

[2] = tested on: erythroid progenitors; assay: Colony formation assay (CFA), cord blood LDMNC: erythroid progenitor colonies overall; details: for growth of erythroid progenitor colonies in the absence of Epo: 0 U/ml Epo; for size and colour of erythroid colonies: 2 and 0.2 U/ml Epo, ambient or 5% O2, 1.0 mg/ml HAo or HEMOLINK, 100 μM hemin, day 14
Description: This technique, referred to as the colony formation assay (CFA), is the most widely used biological assay to identify and enumerate erythroid progenitors present in hematopoietic tissue such as blood and bone marrow. Cell populations containing erythroid progenitors are plated in semi-solid suspensions of methyl cellulose, agar, low melting agarose or related substances in nutrient culture medium containing 1-3 U/ml Epo and 10 ng/ml IL-3 to specifically stimulate erythroid progenitors. Plates are incubated at 37° C. for 14 days during which time the erythroid progenitors form characteristic hemoglobinized (red) colonies. Two distinct but related erythroid progenitors can be distinguished based on colony size and morphology: BFU-E, the most primitive recognizable erythroid progenitor forms large multilobular colonies whereas the more mature CFU-E forms smaller spherical colonies.
Adult hemoglobin was purified according to U.S Pat. Nos. 5,439,591 and 5,545,328 to obtain HAo and HEMOLINK™ was prepared from HAo according to U.S. Pat. No. 5,532,352. Human umbilical cord blood intended for discard was collected from the umbilical vein of placentas immediately postpartum into 10 ml vacutainer tubes containing 143 USP units/ml sodium heparin. Low density mononuclear cells were separated from red blood cells by centrifugation over a 1.077 g/ml density gradient Cells removed from the plasma/density gradient interface were incubated overnight in a tissue culture flask with 10 ml cell culture medium containing 10% fetal bovine serum, and non-adherent LDMNC were further purified with an additional density gradient step. The LDMNC were then plated into colony formation assays (CFA) on the second day of isolation. In the CFA, LDMNC were plated at a density of 1×10^5 cells/ml in Iscoves modified Dulbeccos cell culture medium containing 0.8% methyl-cellulose, 30% fetal bovine serum, 1% bovine serum albumin, 0.1 mM 2-mercaptoethanol and 2 mM L-glutamine. Unless indicated otherwise, under standard CFA conditions 2 U/ml Epo and 10 ng/ml IL-3 are added to the formulation to stimulate hematopoietic progenitor growth, specifically BFU-E, CFU-E and CFU-GM.
Each condition was tested in duplicate in from 2-18 independent experiments. Cultures were maintained in a humidified incubator at 37° C., 5% CO2 and ambient oxygen tensions. The number of hematopoietic progenitors was scored between days 13-15 by counting the number and types of colonies present.
Erythroid progenitor colony formation assays were conducted as described in Example 1 except that cultures were incubated at either ambient oxygen tensions (˜20% O2) or 5% O2. The reduced oxygen tension of 5% O2 approximates the physiological intravascular oxygen tension in mammals. The mean fold increase in cord blood BFU-E, CFU-E and CFU-GM progenitor number at 5% O2 produced by 1.0 mg/ml HAo (15.6 μM; n=11) or HEMOLINK™ (15.6 μM; n=6), 100 μM hemin (n=10), 250 μM FeCl3 (n=6) or no addition (n=17-18), is shown FIG. 2. Results are expressed relative to control cells treated only with respective vehicles and cultured at ambient oxygen tensions (˜20% O2; fold expansion=1.0; *p<0.05, **p<0.01).
Erythroid progenitor colony formation assays were conducted as described in Example 1 except that cultures were initiated in the presence of Epo concentrations ranging from 0-2 U/ml. The mean fold increase in cord blood BFU-E, CFU-E and CFU-GM progenitor number produced by 1.0 mg/ml HAo (15.6 μM; n=9) or HEMOLINK™ (15.6 μM; n=6), 100 μM hemin (n=8), 250 μM FeCl3 (n=6), or no addition (n=9-10) in the presence of reduced Epo concentrations (0.2 U/ml) is shown in FIG. 3. Cultures were maintained at ambient oxygen tensions (˜20% O2) for 14 days. Results are expressed relative to control cells at 2 U/ml Epo treated only with the respective vehicles (solid line at fold expansion=1.0; *p<0.05, **p<0 01). Erythroid progenitor colonies were undetectable in the absence of Epo. […]

[3] = tested on: BFU-E; assay: Colony formation assay (CFA), cord blood LDMNC: BFU-E colonies; details: 5% O2, 0.2 U/ml Epo; 100 μM hemin, 1.0 mg/ml HAo or HEMOLINK; relative to controls at 2 U/ml Epo, ambient O2

Row | Compound | growth of erythroid progenitors in the absence of Epo, adult blood [1] | fold increase in erythroid progenitor number, adult blood, 0.2 U/ml Epo ([1]; 0.2 U/ml Epo, ~20% O2, 250 μM FeCl3) [fold] | number of erythroid colonies at 0.2 U/ml Epo and 5% O2 (in words) ([2]; 5% O2, 0.2 U/ml Epo, 250 μM FeCl3) | fold expansion of erythroid progenitors at 5% O2 (in words) ([2]; 5% O2, 2 U/ml Epo, 250 μM FeCl3) | fold increase in BFU-E at 0.2 U/ml Epo and 5% O2 [3] [fold] | erythroid progenitor number, adult blood, 5% O2 and 0.2 U/ml Epo (in words) [1] | growth of erythroid progenitor colonies in the absence of Epo [2] | size and colour of erythroid colonies [2] | concentration at which significant stimulation of erythroid progenitor colony formation is observed ([2]; 2 U/ml Epo, ambient O2) [µM]
1 | [Cl][Fe]([Cl])[Cl] [FeCl3] | could not support the growth of erythroid progenitors in the absence of Epo | ~2 | did not significantly increase the number of erythroid colonies | did not increase the fold expansion of erythroid progenitors beyond that of the untreated controls at 5% O2 | – | – | – | – | –
2 | C=CC1=C(C)C2=Cc3c(C=C)c(C)c4[n]3[Fe-2]35([Cl])[n]6c(c(C)c(CCC(=O)O)c6=CC6=[N+]3C(=C4)C(C)=C6CCC(=O)O)=CC1=[N+]25 [hemin] | could not support the growth of erythroid progenitors in the absence of Epo | – | – | – | 4 | stimulated further increases in erythroid progenitor number | could not support the growth of erythroid progenitor colonies in the absence of Epo | mostly smaller and less red in color | –
3 | HAo: adult human hemoglobin obtained from red blood cells and purified by displacement chromatography; uncross linked product | could not support the growth of erythroid progenitors in the absence of Epo | – | – | – | 3.3 | stimulated further increases in erythroid progenitor number | could not support the growth of erythroid progenitor colonies in the absence of Epo | larger and redder | 7.8
4 | HEMOLINK™: chemically crosslinked hemoglobin prepared by treating human hemoglobin with a polyaldehyde (O-raffinose) | could not support the growth of erythroid progenitors in the absence of Epo | – | – | – | 2.6 | stimulated further increases in erythroid progenitor number | could not support the growth of erythroid progenitor colonies in the absence of Epo | larger and redder | –
